Data from US5141960A, “Tricyclic glycinamide derivatives as anti-convulsants” (G. D. Searle & Co., priority 1991, dated 1992).

Tests used:
[1] = tested on: convulsions and death induced by 3-mercaptopropionic acid; assay: 3-Mercaptopropionic acid (3-MPA) induced convulsions; format: in vivo, male Swiss albino mice (CD1); conditions: for 3-MPA score: total number of mice protected for two groups of 5 animals, 30 min: 30 min before convulsions induced; for activity as inhibitors of tonic convulsions: overall, 3-MPA induced, oral, mice
Method: (§1) Treatment of a mammal afflicted by or susceptible to certain CNS disorders is accomplished by administration of a therapeutically-effective amount of a compound of Formula I. In particular, compounds 1-3 of Table 1 were evaluated by in vitro and in vivo animal model assays to determine the pharmacological properties of such compounds and their suitability for use as therapeutic drugs in humans. These biological assays, as described below, consisted of prevention of induced convulsions in mice, a TCP binding study in rat brain, determination of acute toxicity in mice and an animal behavior assay. Except as otherwise specified, the animals used in the in vivo test were male Swiss albino mice of weight 22 to 33 g [CD1, Charles River, France], housed in groups of 10 on a 12-hour dark-light cycle for at least one week and fasted overnight prior to testing.
Compounds of Formula I were examined as inhibitors of convulsions and death induced by the convulsant agent 3-mercaptopropionic acid (3-MPA, 120 mg/kg subcutaneously) [W. van Dorsser, D. Barris, A. Cordi and J. Roba, Arch. Int. Pharmacodyn., 266, 239-249 (1983)]. The compounds of the invention were administered orally at a dosage of either 100 mg/kg or 30 mg/kg in a volume of 10 ml/kg each to 5 mice, at intervals of 30 minutes or 2 hours before convulsions were induced. The number of mice protected against tonic convulsions and the number of dead mice were noted. Results are given in Table II as a score which represents the total number of mice protected for two groups of 5 animals (3-MPA).

[2] = biological target: TCP (1-[1-(2-thienyl)cyclohexyl]piperidine) binding in rat brain synaptic membranes (SPM); assay: TCP binding study; conditions: 2 nM tritiated TCP, pH 7.4, 25° C., 60 min
Method: The effect of compounds of Formula I on TCP (1-[1-(2-thienyl)cyclohexyl]piperidine) binding was measured in rat brain synaptic membranes (SPM) prepared by known methods [J. B. Monahan & J. Michel; J. Neurochem., 48, 1699-1708 (1987)]. Prior to their use in the binding assay, frozen SPM were thawed, then diluted twenty fold with 50 mM Tris/acetate [pH 7.4, containing 0.04% (v/v) Triton X-100], incubated for 30 min. at 37° C. and centrifuged at 95,000 xg for 15 min. The Triton X-100 treated SPM were washed with 5 mM Tris/HCl (pH 7.4) and centrifuged a total of six times. Compound of the invention was incubated at differing concentrations with SPM (0.2-0.4 mg protein) and 2 nM tritiated TCP, in a total volume of 0.5 ml of 5 mM Tris/HCl buffer (pH 7.4) at 25° C. for 60 min. The samples were filtered through glass fiber filters (Schleicher & Schuell #32) which had been pretreated with 0.05% (v/v) polyethyleneimine, washed with 2 ml of ice-cold 5 mM Tris/HCl buffer, and then counted on a Beckman LS 5800 liquid scintillation counter with automatic corrections for quenching and counting efficiency. Inhibition of TCP binding was measured as a decrease in basal binding. […] TCP binding inhibition values (IC50) were calculated using logit-log analysis and calculations and regression analysis were performed using templates developed for Lotus 123 by known methods [L. M. Pullan, Computer Appli. […]

[3] = Acute toxicity (LD50, oral); design: species or system male mice; conditions: mouse, in vivo, mice, mortality over 15 days
Method: as §1
The acute toxicity was determined after oral administration of the test compound to mice. […] Doses used in the test were determined by observing toxic effects on the mice, which doses varied from 3,000 mg/kg down to about 3 mg/kg. The mortality was recorded over a period of 15 days. The LD50 result in Table II was calculated according to published methods [Lichtfield and Wilcoxon, J. Pharmacol. Exp. Ther., 96, 99 (1949)] and is expressed in mg of test compound per kilogram of mouse body weight.

[4] = design: species or system mice; conditions: mouse, in vivo
Method: as §1
Behavioral effect of compounds of the invention on animals were determined by observations taken at 5 to 6 hours and at 24 hours after administration of compounds of the invention. Determinations were made based on a method derived from that of S. Irwin [See R. A. Turner, Screening Methods in Pharmacology, Chapter 3, pages 22-34, Academic Press, N.Y. (1965)]. If an anomaly were noted, the observation was extended and smaller doses were tested. […]

[5] = compound orally at 100 mg/kg or 30 mg/kg, 3-MPA 120 mg/kg s.c.

## NC(=O)CNC1c2ccccc2CCc2ccccc21 [Compound 1, 2-(2,3-6,7-dibenzocycloheptanylamino)acetamide]
[1]; [5]
  3-MPA score: total number of mice protected for two groups of 5 animals, 30 min: 10
[1]; compound orally at 100 mg/kg or 30 mg/kg, 2 hours before convulsions induced, 3-MPA 120 mg/kg s.c.
  3-MPA score: total number of mice protected for two groups of 5 animals, 2 hrs: 10
[1]
  activity as inhibitors of tonic convulsions: very good activity
[2]
  IC50: 38 µM
[3]
  LD50 at 360 h: 780 mg/kg
[4]
  Behavior: sedation (SED), dose at which the behavior is observed: 300 mg/kg

## NC(=O)CNC1c2ccccc2C=Cc2ccccc21 [Compound 2, 2-(2,3-6,7-dibenzocyclohept-4-enylamino)acetamide]
[1]; [5]
  3-MPA score: total number of mice protected for two groups of 5 animals, 30 min: 3
[4]
  Behavior: convulsions (CON), dose at which the behavior is observed: 1000 mg/kg

## NC(=O)CNC1c2ccccc2CSc2ccccc21 (stereo not shown) [Compound 3, 2-(2,3-6,7-dibenzo-4-thiacycloheptanylamino)acetamide]
[1]; [5]
  3-MPA score: total number of mice protected for two groups of 5 animals, 30 min: 10
[1]
  activity as inhibitors of tonic convulsions: very good activity
